Common to all, as to type: in vivo
Holding throughout (details): 250 g/ha, evaluated after 13 days

In experiment [1] the test system is Echinochloa crus-galli (ECHCG). As to the kind of experiment: Post-emergence herbicidal test, glasshouse. The method, then: (§1) Seeds of a variety of test species are sown in standard soil in pots Amaranthus palmeri (AMAPA), Amaranthus retoflexus (AMARE), Setaria faberi (SETFA), Echinochloa crus-galli (ECHCG), Ipomoea hederacea (IPOHE)). After cultivation for one day (pre-emergence) or after 8 days cultivation (post-emergence) under controlled conditions in a glasshouse (at 24/16° C., day/night; 14 hours light; 65% humidity), the plants are sprayed with an aqueous spray solution derived from the formulation of the technical active ingredient in acetone/water (50:50) solution containing 0.5% Tween 20 (polyoxyethelyene sorbitan monolaurate, CAS RN 9005-64-5). Compounds are applied at 250 g/ha unless otherwise stated. The test plants are then grown in a glasshouse under controlled conditions in a glasshouse (at 24/16° C., day/night; 14 hours light; 65% humidity) and watered twice daily. After 13 days for pre and post-emergence, the test is evaluated for the percentage damage caused to the plant. The biological activities are shown in the following table on a five-point scale (5=81-100%; 4=61-80%; 3=41-60%; 2=21-40%; 1=0-20%).

For experiment [2], the system named is Ipomoea hederacea (IPOHE). As to the kind of experiment: Post-emergence herbicidal test, glasshouse. As to the method: as §1
The test system of experiment [3] is Amaranthus palmeri (AMAPA). As to the kind of experiment: Post-emergence herbicidal test, glasshouse. As to the method: as §1
The subject of experiment [4] is Setaria faberi (SETFA). As to the kind of experiment: Post-emergence herbicidal test, glasshouse. The method, then: as §1
The test system of experiment [5] is Amaranthus retoflexus (AMARE). Nature of the experiment: Post-emergence herbicidal test, glasshouse. As to the method: as §1
Experiment [6] concerns Echinochloa crus-galli (ECHCG). As to the kind of experiment: Pre-emergence herbicidal test, glasshouse. As to the method: as §1
Experiment [7] deals with Ipomoea hederacea (IPOHE). Nature of the experiment: Pre-emergence herbicidal test, glasshouse. The method, then: as §1
For experiment [8], the system named is Amaranthus palmeri (AMAPA). As to the kind of experiment: Pre-emergence herbicidal test, glasshouse. As to the method:
as §1

Experiment [9] concerns Setaria faberi (SETFA). As to the kind of experiment: Pre-emergence herbicidal test, glasshouse. The method, then:
as §1

The subject of experiment [10] is Amaranthus retoflexus (AMARE). Nature of the experiment: Pre-emergence herbicidal test, glasshouse. The method, then: as §1

From patent publication US20250042876A1, “HERBICIDAL PYRAZOLE PYRIMIDINE COMPOUNDS” (SYNGENTA CROP PROTECTION AG, priority 2021, published 2025) come the findings set out here.

As for `N#Cc1ccc(-n2nc(C(F)(F)F)cc2Cc2ncc(Cl)cn2)cc1` [Compound 1.007, 4-[5-[(5-chloropyrimidin-2-yl)methyl]-3-(trifluoromethyl)pyrazol-1-yl]benzonitrile], the “ECHCG percentage damage caused to the plant (five-point scale)” value (from here on “ECHCG percentage damage caused”) in [1] and in experiment [6] was 5 (5=81-100%) throughout. Moreover, the “IPOHE percentage damage caused to the plant (five-point scale)” value (“IPOHE percentage damage caused” below) in experiment [2] was 3 (3=41-60%); in experiment [7], 5 (5=81-100%). The “AMAPA percentage damage caused to the plant (five-point scale)” value (shortened to “AMAPA percentage damage caused”) in experiment [3] and in experiment [8] was 5 (5=81-100%) throughout. Besides, the “SETFA percentage damage caused to the plant (five-point scale)” value (“SETFA percentage damage caused” for short) in the experiment on Setaria faberi (SETFA) [4] and in the experiment on Setaria faberi (SETFA) [9] was 5 (5=81-100%) in each case. Further, the “AMARE percentage damage caused to the plant (five-point scale)” value (“AMARE percentage damage caused” below) in [5] and in experiment [10] was 5 (5=81-100%) throughout.

As for `FC(F)(F)c1cc(Cc2ncc(Cl)cn2)n(-c2ccc(Cl)cc2)n1` [Compound 1.008], the “ECHCG percentage damage caused” value in experiment [1] and in [6] was 5 (5=81-100%) each time. Also, the “IPOHE percentage damage caused” value in experiment [2] is 3 (3=41-60%); in experiment [7] it was 4 (4=61-80%). Also, the “AMAPA percentage damage caused” value in [3] and in [8] was 5 (5=81-100%) each time. For the same molecule, the “SETFA percentage damage caused” value with Setaria faberi (SETFA) [4] and in the experiment with Setaria faberi (SETFA) [9] was 5 (5=81-100%) each time. Also, the “AMARE percentage damage caused” value in experiment [5] and in [10] was 5 (5=81-100%) in each case.

As for `Cc1cnc(Cc2cc(C(F)(F)F)nn2-c2ccc(C(F)(F)F)cc2)nc1` [Compound 1.011], the “ECHCG percentage damage caused” value in [1] and in experiment [6] was 5 (5=81-100%) each time. The figures for the “IPOHE percentage damage caused” value in [2] and in experiment [7] were 3 (3=41-60%) and 5 (5=81-100%), respectively. In addition, the “AMAPA percentage damage caused” value in experiment [3] and in experiment [8] was 5 (5=81-100%) each time. Besides, the “SETFA percentage damage caused” value with Setaria faberi (SETFA) [4] and in the experiment on Setaria faberi (SETFA) [9] was 5 (5=81-100%) in each case. For the same molecule, the “AMARE percentage damage caused” value in experiment [5] and in experiment [10] was 5 (5=81-100%) throughout.

Turning to `N#Cc1cnc(Cc2cc(C(F)(F)F)nn2-c2ccc(C(F)(F)F)cc2)nc1` [Compound 1.012], the “ECHCG percentage damage caused” value is listed as 4 (4=61-80%) in [1] and 5 (5=81-100%) in experiment [6]. The results for the “IPOHE percentage damage caused” value in experiment [2] and in experiment [7] were 4 (4=61-80%) and 5 (5=81-100%), respectively. The “AMAPA percentage damage caused” value in experiment [3] and in experiment [8] was 5 (5=81-100%) each time. For the same molecule, the “SETFA percentage damage caused” value with Setaria faberi (SETFA) [4] and in the experiment on Setaria faberi (SETFA) [9] was 5 (5=81-100%) in each case. Further, the “AMARE percentage damage caused” value in experiment [5] and in experiment [10] was 5 (5=81-100%) each time.

With `FC(F)c1cc(Cc2ncc(Cl)cn2)n(-c2ccc(C(F)(F)F)cc2)n1` [Compound 1.016], the “ECHCG percentage damage caused” value in [1] and in experiment [6] was 5 (5=81-100%) each time. For the same molecule, the “IPOHE percentage damage caused” value is recorded as 3 (3=41-60%) in experiment [2] and 5 (5=81-100%) in experiment [7]. Moreover, the “AMAPA percentage damage caused” value in experiment [3] and in experiment [8] was 5 (5=81-100%) each time. Moreover, the “SETFA percentage damage caused” value in the experiment with Setaria faberi (SETFA) [4] and in the experiment with Setaria faberi (SETFA) [9] was 5 (5=81-100%) throughout. The “AMARE percentage damage caused” value in experiment [5] and in experiment [10] was 5 (5=81-100%) throughout.

`FC(F)c1cc(Cc2ncc(Cl)cn2)n(-c2ccc(Cl)nc2)n1` [Compound 1.035]: the “ECHCG percentage damage caused” value in experiment [1] is 3 (3=41-60%); in experiment [6], 4 (4=61-80%). The “IPOHE percentage damage caused” value in experiment [2] and in [7] was 4 (4=61-80%) in each case. Besides, the “AMAPA percentage damage caused” value in [3] is listed as 4 (4=61-80%); in experiment [8], 5 (5=81-100%). The results for the “SETFA percentage damage caused” value with Setaria faberi (SETFA) [4] and in the experiment on Setaria faberi (SETFA) [9] were 3 (3=41-60%) and 5 (5=81-100%), respectively. For the same molecule, the “AMARE percentage damage caused” value in experiment [5] was 4 (4=61-80%); in experiment [10] it was 5 (5=81-100%).
